{
  "source": "paper PMC3152598",
  "about": "(Biochemical pharmacology, 2011)",
  "key": {"human A3 AR [1]": {"target": "T1, human A3 AR (Homo sapiens, UniProt P0DMS8)", "T1 sequence (P0DMS8 1-318)": "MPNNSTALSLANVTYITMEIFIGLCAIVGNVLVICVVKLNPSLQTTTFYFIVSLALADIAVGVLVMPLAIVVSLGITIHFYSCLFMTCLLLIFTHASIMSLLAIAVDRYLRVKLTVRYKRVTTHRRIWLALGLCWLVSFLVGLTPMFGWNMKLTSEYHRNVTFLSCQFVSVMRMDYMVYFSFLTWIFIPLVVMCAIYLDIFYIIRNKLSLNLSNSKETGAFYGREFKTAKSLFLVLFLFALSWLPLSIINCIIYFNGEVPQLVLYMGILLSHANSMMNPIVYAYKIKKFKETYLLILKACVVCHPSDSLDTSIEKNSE", "experiment": "Cyclic AMP accumulation assay"}, "human A3 AR [2]": {"target": "T1, human A3 AR", "experiment": "cell-based", "conditions": "CHO, read-out: Ca2+ Emax"}, "human A3 AR [3]": {"target": "T1, human A3 AR", "experiment": "Membrane hyperpolarization", "conditions": "for Emax: CHO, read-out: hyperpolarization Emax; for agonist activity in membrane hyperpolarization assay, in words: agonist alone"}, "human A3 AR [4]": {"target": "T1, human A3 AR", "experiment": "cell-based", "conditions": "CHO, read-out: β-arrestin2 Emax"}, "human A3 AR [5]": {"target": "T1, human A3 AR", "conditions": "LUF6000 10 μM"}, "other subtypes of ARs": {"tested_on": "other subtypes of ARs", "conditions": "concentrations up to 10 μM; cited from earlier work"}, "human A3 AR [6]": {"target": "T1, human A3 AR", "conditions": "no agonist"}, "human A3 AR [7]": {"target": "T1, human A3 AR", "conditions": "agonist Cl-IB-MECA; LUF6000 1, 3, and 10 μM"}},
  "data": [
    {"smiles": "Clc1ccc(Nc2nc3ccccc3c3[nH]cnc23)cc1Cl", "note": "[LUF6001, N-(3,4-dichloro-phenyl)-1H-imidazo[4,5-c]quinolin-4-amine]", "values": [
      {"measurement": "effect on agonist action (efficacy and potency), in words", "setting": "human A3 AR [1]; agonist Cl-IB-MECA", "value": "slightly decreased both the efficacy and potency"}
    ]},
    {"smiles": "OC[C@H]1O[C@@H](n2cnc3c(NCc4cccc(I)c4)nc(Cl)nc32)[C@H](O)[C@@H]1O", "note": "[MRS542, 2-chloro-N^6-(3-iodobenzyl)adenosine]", "values": [
      {"measurement": "Emax", "setting": "human A3 AR [2]", "value": "7.5 ± 2.5", "unit": "%"},
      {"measurement": "Emax", "setting": "human A3 AR [3]", "value": "-3.8 ± 5.6", "unit": "%"},
      {"measurement": "agonist activity in membrane hyperpolarization assay, in words", "setting": "human A3 AR [3]", "value": "did not show any agonist activity"},
      {"measurement": "Emax", "setting": "human A3 AR [4]", "value": "41.1 ± 3.2", "unit": "%"}
    ]},
    {"smiles": "OC[C@H]1O[C@@H](n2cnc3c(NCc4cccc(I)c4)ncnc32)[C@H](O)[C@@H]1O", "note": "[MRS541, N^6-(3-iodobenzyl)adenosine]", "values": [
      {"measurement": "agonist activity in membrane hyperpolarization assay, in words", "setting": "human A3 AR [3]", "value": "did not show any significant activation"}
    ]},
    {"smiles": "Nc1ncnc2c1ncn2[C@@H]1O[C@H](CO)[C@@H](O)[C@H]1O", "note": "[adenosine]", "values": [
      {"measurement": "agonist activity in membrane hyperpolarization assay, in words", "setting": "human A3 AR [3]", "value": "equally efficacious as NECA"}
    ]},
    {"smiles": "O=c1[nH]cnc2c1ncn2[C@@H]1O[C@H](CO)[C@@H](O)[C@H]1O", "note": "[inosine]", "values": [
      {"measurement": "agonist activity in membrane hyperpolarization assay, in words", "setting": "human A3 AR [3]", "value": "did not show any significant activation"}
    ]},
    {"smiles": "Clc1ccc(Nc2nc3ccccc3c3[nH]c(C4CCCCC4)nc23)cc1Cl", "note": "[LUF6000, N-(3,4-dichloro-phenyl)-2-cyclohexyl-1H-imidazo[4,5-c]quinolin-4-amine]", "values": [
      {"measurement": "further increase of the efficacy of Cl-IB-MECA at higher concentration", "setting": "human A3 AR [3]; agonist Cl-IB-MECA, LUF6000 30 μM", "value": "did not induce a further increase"},
      {"measurement": "effect on the efficacy of adenosine", "setting": "human A3 AR [3]; agonist adenosine, data not shown", "value": "did not show any effect"},
      {"measurement": "enhancement of the residual activity of inosine, MRS541 and LUF5833", "setting": "human A3 AR [3]; ligands inosine, MRS541, LUF5833", "value": "did not show any enhancement"},
      {"measurement": "effect of modulator alone on membrane hyperpolarization", "setting": "human A3 AR [3]; no agonist", "value": "did not show any effect"},
      {"measurement": "enhancement of the effect of Cl-IB-MECA", "setting": "human A3 AR [5]; agonist Cl-IB-MECA", "value": "less than 10%"},
      {"measurement": "enhancement of the effect of NECA", "setting": "human A3 AR [5]; agonist NECA", "value": "less than 10%"},
      {"measurement": "enhancement of the efficacy of MRS542", "setting": "human A3 AR [5]; partial agonist MRS542", "value": "about 40%"},
      {"measurement": "binding at the other subtypes of ARs", "setting": "other subtypes of ARs", "value": "did not bind appreciably"},
      {"measurement": "effect of modulator alone on intracellular calcium mobilization", "setting": "human A3 AR [6]", "value": "had no effect"},
      {"measurement": "effect on the efficacy of Cl-IB-MECA in inducing ERK1/2 activation", "setting": "human A3 AR [7]", "value": "had no effect"},
      {"measurement": "concentration at which the efficacy-enhancing effect reaches a maximum", "setting": "human A3 AR [1]; agonist Cl-IB-MECA", "value": "approx. 10 μM"},
      {"measurement": "concentration from which the efficacy-enhancing effect starts", "setting": "human A3 AR [1]; agonist Cl-IB-MECA", "value": "≤ 1", "unit": "µM"},
      {"measurement": "relative enhancement of the efficacy of Cl-IB-MECA", "setting": "human A3 AR [1]; agonist Cl-IB-MECA, LUF6000 10 μM", "value": 50, "unit": "%"},
      {"measurement": "further enhancement at higher concentration", "setting": "human A3 AR [1]; agonist Cl-IB-MECA, LUF6000 30 μM, data not shown", "value": "did not cause further enhancement"},
      {"measurement": "effect on agonist potency", "setting": "human A3 AR [1]; agonist Cl-IB-MECA, modulator 10 μM or lower", "value": "did not significantly affect"},
      {"measurement": "maximum enhancement of the efficacy of NECA", "setting": "human A3 AR [1]; agonist NECA, LUF6000 10 μM", "value": "about 16%"},
      {"measurement": "efficacy of inosine in presence of LUF6000, % of the level of NECA", "setting": "human A3 AR [1]; agonist inosine, LUF6000 10 μM", "value": 85, "unit": "%"},
      {"measurement": "effect on the inability of MRS1220 and MRS1191 to inhibit forskolin-stimulated cyclic AMP levels", "setting": "human A3 AR [1]; nonnucleoside A3 AR antagonists MRS1220 and MRS1191, data not shown", "value": "did not show any effect"},
      {"measurement": "effect on the efficacy of CCPA", "setting": "human A3 AR [1]; nucleoside antagonist CCPA", "value": "no effect"},
      {"measurement": "effect on the efficacy of MRS542", "setting": "human A3 AR [1]; nucleoside antagonist MRS542", "value": "no effect"},
      {"measurement": "efficacy of LUF5833, % of the control level (agonist alone)", "setting": "human A3 AR [1]; partial agonist LUF5833, LUF6000 10 μM", "value": "over 200%"},
      {"measurement": "efficacy of MRS541, % of the control level (agonist alone)", "setting": "human A3 AR [1]; partial agonist MRS541, LUF6000 10 μM", "value": "over 200%"}
    ]},
    {"smiles": "CNC(=O)[C@H]1O[C@@H](n2cnc3c(NCc4cccc(I)c4)nc(Cl)nc32)[C@H](O)[C@@H]1O", "note": "[Cl-IB-MECA, 2-chloro-N^6-(3-iodobenzyl)adenosine-5′-N-methyluronamide]", "values": [
      {"measurement": "Emax", "setting": "human A3 AR [2]", "value": "55.2 ± 3.4", "unit": "%"},
      {"measurement": "Emax", "setting": "human A3 AR [3]", "value": "58.3 ± 3.6", "unit": "%"},
      {"measurement": "Emax", "setting": "human A3 AR [4]", "value": "104 ± 5", "unit": "%"},
      {"measurement": "Emax", "setting": "human A3 AR [1]; CHO, read-out: cyclic AMP Emax", "value": "95.8 ± 4.8", "unit": "%"}
    ]},
    {"smiles": "Clc1ccc(Nc2nc3ccccc3c3[nH]c(C4CCC4)nc23)cc1Cl", "note": "[LUF5999, N-(3,4-dichloro-phenyl)-2-cyclobutyl-1H-imidazo[4,5-c]quinolin-4-amine]", "values": [
      {"measurement": "effect on agonist action (efficacy and potency), in words", "setting": "human A3 AR [1]; agonist Cl-IB-MECA", "value": "concentration-dependently increasing efficacy while decreasing potency"}
    ]}
  ]
}
